Where two headings read alike, the source gives them in different places.
Columns and labels:
[1] = system: common lambsquarters (CHEAL, Chenopodium album L.); test: Greenhouse postemergence herbicidal effect; type: in vivo; details: for Obs % visual injury: CHEAL
Experimental: (§1) Seeds of the desired test plant species were planted in a 90:10% v/v (volume/volume) mixture of PRO-MIX® BX (Premier Tech Horticulture, Quakertown, PA, USA) and PROFILE® GREENS GRADE™ (Profile Products LLC, Buffalo Grove, IL, USA) planting mixture, which typically has a pH of 5.2 to 6.2 and an organic matter content of at least 50 percent, in plastic pots with a surface area of 103.2 square centimeters (cm^2). […] The plants were grown for 7-36 days (d) in a greenhouse with an approximate 14-hour (h) photo-period which was maintained at about 23° C. during the day and 22° C. during the night. Nutrients and water were added on a regular basis and supplemental lighting was provided with overhead metal halide 1000-Watt lamps as necessary. The plants were employed for testing when they reached the second or third true leaf stage.
(§2) Emulsifiable concentrates of each of each pyridine carboxylate herbicide (Compound A or Compound B) were prepared at 100 grams acid equivalent per liter (g ae/L). The emulsifiable concentrates also included a safener, cloquintocet-mexyl, at 120 grams active ingredient per liter (g ai/L), unless otherwise noted below. An aliquot of each emulsifiable concentrate was placed in a 25 mL glass vial and diluted with an aqueous mixture of 1.25% (v/v) ACTIROB® B esterified rapeseed oil (Bayer Crop Science, Research Triangle Park, NC, USA) or MSO® Concentrate with LECI-TECH® methylated soybean oil (Loveland Products, Loveland, CO, USA) to obtain concentrated stock solutions at the highest application rate for each herbicide, based upon a 12 milliliter (mL) application volume at a rate of 187 liters per hectare (L/ha). The concentrated stock solutions were further diluted with an aqueous mixture of 1.25% v/v ACTIROB® B or MSO® Concentrate with LECI-TECH® to obtain stock solutions at reduced application rates for each herbicide. Spray solutions of the herbicide combinations (Compound A or Compound B plus ALS herbicide) were prepared by adding weighed amounts or aliquots of the ALS herbicides to the stock solutions of Compound A or Compound B to form 12-mL spray solutions in two- or three-way combinations.
(§3) The spray solutions were applied to the plant material with an overhead Mandel track sprayer equipped with 8002E nozzles calibrated to deliver 187 L/ha over an application area of 0.503 square meters (m^2) at a spray height of 18 inches (43 centimeters (cm)) above the average plant canopy. Control plants were sprayed in the same manner with the solvent blank. All pyridine carboxylate herbicide (component a) application rates are given as “g ae/ha” and all ALS inhibitor (component b) application rates are given as “g ai/ha.”
(§4) The treated plants and control plants were placed in a greenhouse as described above and watered by sub-irrigation to prevent wash-off of the test compounds. After 20-22 d, the condition of the test plants as compared with that of the control plants was determined visually and scored on a scale of 0 to 100 percent where 0 corresponds to no injury and 100 corresponds to complete kill.

[2] = system: kochia (KCHSC, Kochia scoparia); test: Greenhouse postemergence herbicidal effect; type: in vivo; details: for Obs % visual injury: KCHSC
Experimental: as §1, §2, §3, §4

[3] = system: large crabgrass (DIGSA, Digitaria sanguinalis); test: Greenhouse postemergence herbicidal effect; type: in vivo; details: DIGSA; Bensulfuron 16 g/ha
Text: (§5) Seeds of the desired test plant species were planted in a 90:10% v/v (volume/volume) mixture of PRO-MIX® BX (Premier Tech Horticulture, Quakertown, PA, USA) and PROFILE® GREENS GRADE™ (Profile Products LLC, Buffalo Grove, IL, USA) planting mixture, which typically has a pH of 5.2 to 6.2 and an organic matter content of at least 50 percent, in plastic pots with a surface area of 103.2 square centimeters (cm^2). In some aspects, to ensure good germination and healthy plants, a fungicide treatment and/or other chemical or physical treatment was applied. The plants were grown for 7-36 days (d) in a greenhouse with an approximate 14-hour (h) photo-period which was maintained at about 23° C. during the day and 22° C. during the night. Nutrients and water were added on a regular basis and supplemental lighting was provided with overhead metal halide 1000-Watt lamps as necessary. The plants were employed for testing when they reached the second or third true leaf stage.
as §2, §3, §4

[4] = system: broad-leaf dock (RUMOB, Rumex obtusifolius); test: Greenhouse postemergence herbicidal effect; type: in vivo; details: RUMOB; Bensulfuron 16 g/ha
Text: as §5, §2, §3, §4

[5] = system: chickweed (STEME, Stellaria media); test: Greenhouse postemergence herbicidal effect; type: in vivo; details: STEME; Bensulfuron 16 g/ha
Experimental: (§6) The plants were grown for 7-36 days (d) in a greenhouse with an approximate 14-hour (h) photo-period which was maintained at about 23° C. during the day and 22° C. during the night. Nutrients and water were added on a regular basis and supplemental lighting was provided with overhead metal halide 1000-Watt lamps as necessary. The plants were employed for testing when they reached the second or third true leaf stage.
(§7) The emulsifiable concentrates also included a safener, cloquintocet-mexyl, at 120 grams active ingredient per liter (g ai/L), unless otherwise noted below.
(§8) Control plants were sprayed in the same manner with the solvent blank. All pyridine carboxylate herbicide (component a) application rates are given as “g ae/ha” and all ALS inhibitor (component b) application rates are given as “g ai/ha.”
as §4

[6] = system: Russian thistle (SASKR, Salsola kali); test: Greenhouse postemergence herbicidal effect; type: in vivo
Experimental: as §6, §7, §8, §4

[7] = system: pigweed (AMARE, Amaranthus retroflexus); test: Greenhouse postemergence herbicidal effect; type: in vivo; details: for Obs % visual injury: AMARE
Experimental: as §6, §7, §8, §4

[8] = system: wild pansy (VIOTR, Viola tricolor); test: Greenhouse postemergence herbicidal effect; type: in vivo
Experimental: as §6, §7, §8, §4

[9] = system: wild buckwheat (POLCO, Polygonum convolvulus); test: Greenhouse postemergence herbicidal effect; type: in vivo; details: for Obs % visual injury: POLCO
Experimental: as §6, §7, §8, §4

[10] = system: Canadian thistle (CIRAR, Cirsium arvense); test: Greenhouse postemergence herbicidal effect; type: in vivo; details: for Obs % visual injury: CIRAR; for pest or weed control at 17.5 g/ha: Cirsium arvense, post-emergence, read-out: % visual injury, Obs
Experimental: as §6, §7, §8, §4

[11] = system: wild chamomile (MATCH, Matricaria chamomilla); test: Greenhouse postemergence herbicidal effect; type: in vivo
Experimental: as §6, §7, §8, §4

spring wheat (TRZAS) = type: in vivo, Triticum aestivum; details: for Obs % visual injury: TRZAS
Experimental: as §6, §7, §8, §4

spring barley (HORVS) = type: in vivo, Hordeum vulgare; details: for Obs % visual injury: HORVS
Experimental: as §6, §7, §8, §4

[12] = system: wild mustard (SINAR, Sinapis arvensis); test: Greenhouse postemergence herbicidal effect; type: in vivo
Experimental: as §6, §7, §8, §4

[13] = system: spring rape (BRSNN, Brassica napus); test: Greenhouse postemergence herbicidal effect; type: in vivo
Experimental: as §6, §7, §8, §4

[14] = system: winter rape (BRSNW, Brassica napus); test: Greenhouse postemergence herbicidal effect; type: in vivo
Experimental: as §6, §7, §8, §4

With `COc1cc(OC)nc(NC(=O)NS(=O)(=O)Cc2ccccc2C(=O)O)n1` [Bensulfuron, bensulfuron] the “% visual injury, Obs” value ([1]; 16 g/ha) was 10%, the “Obs % visual injury” value ([1]; Bensulfuron 16 g/ha) was 10% and the “% visual injury, Obs” value ([2]; 16 g/ha) was 5%. For the same compound, the “Obs % visual injury” value ([2]; Bensulfuron 16 g/ha) was 20%, the “Obs % visual injury” value [3] was 0% and the “Obs % visual injury” value [4] was 60%. For the same compound, the “Obs % visual injury” value [5] was 8%, the “% visual injury, Obs” value ([6]; 16 g/ha) was 0% and the “Obs % visual injury” value ([7]; Bensulfuron 16 g/ha) was 20%. For the same compound, the “Obs % visual injury” value ([8]; VIOTR, Bensulfuron 16 g/ha) was 8%, the “Obs % visual injury” value ([9]; Bensulfuron 16 g/ha) was 80% and the “Obs % visual injury” value ([10]; Bensulfuron 16 g/ha) was 20%. The “% visual injury, Obs” value ([11]; 16 g/ha) was 38%.
In the case of `COc1cc(OC)nc(Sc2cccc3c2C(=O)OC3C)n1` (stereo not drawn) [Pyriftalid, pyriftalid], the “% visual injury, Obs” value (spring wheat (TRZAS); 30 g/ha) is reported as 0%, the “% visual injury, Obs” value (spring barley (HORVS); 30 g/ha) is reported as 5% and the pest or weed control at 30 g/ha ([2]; Bassia scoparia, post-emergence, 30 g/ha, read-out: % visual injury, Obs) is reported as 0%. The “% visual injury, Obs” value ([12]; 30 g/ha) was 23%, the “% visual injury, Obs” value ([6]; 30 g/ha) was 0% and the “% visual injury, Obs” value ([13]; 30 g/ha) was 18%. For the same compound, the “% visual injury, Obs” value ([11]; 30 g/ha) was 0%.
With imazamethabenz the “% visual injury” value (spring wheat (TRZAS); Imazamethabenz 100 g/ha) was 0%, the “Obs % visual injury” value (spring wheat (TRZAS); Imazamethabenz 100 g/ha) was 0% and the “Obs % visual injury” value (spring wheat (TRZAS); Imazamethabenz 200 g/ha) was 0%. The “Obs % visual injury” value (spring barley (HORVS); Imazamethabenz 100 g/ha) was 0%, the “Obs % visual injury” value (spring barley (HORVS); Imazamethabenz 200 g/ha) was 0% and the “% visual injury” value (spring barley (HORVS); Imazamethabenz 100 g/ha) was 0%. The “Obs % visual injury” value ([1]; Imazamethabenz 100 g/ha) was 0%, the “Obs % visual injury” value ([1]; Imazamethabenz 200 g/ha) was 0% and the “% visual injury” value ([1]; Imazamethabenz 100 g/ha) was 0%. The “% visual injury” value ([2]; Imazamethabenz 100 g/ha) was 0%, the “Obs % visual injury” value ([2]; Imazamethabenz 200 g/ha) was 0% and the “% visual injury” value ([12]; Imazamethabenz 100 g/ha) was 68%. The “Obs % visual injury” value ([12]; SINAR, Imazamethabenz 200 g/ha) was 75%, the “% visual injury” value ([6]; Imazamethabenz 100 g/ha) was 0% and the “Obs % visual injury” value ([6]; SASKR, Imazamethabenz 100 g/ha) was 13%. The “Obs % visual injury” value ([7]; Imazamethabenz 200 g/ha) was 5%, the “% visual injury” value ([7]; Imazamethabenz 100 g/ha) was 0% and the “% visual injury” value ([9]; Imazamethabenz 100 g/ha) was 70%. For the same compound, the “Obs % visual injury” value ([9]; Imazamethabenz 200 g/ha) was 88%, the “Obs % visual injury” value ([14]; BRSNW, Imazamethabenz 200 g/ha) was 53% and the “% visual injury” value ([14]; Imazamethabenz 100 g/ha) was 35%. The “Obs % visual injury” value ([10]; Imazamethabenz 100 g/ha) was 5%, the “Obs % visual injury” value ([10]; Imazamethabenz 200 g/ha) was 5% and the “% visual injury” value ([10]; Imazamethabenz 100 g/ha) was 0%. The “% visual injury” value ([11]; Imazamethabenz 100 g/ha) was 0% and the “Obs % visual injury” value ([11]; MATCH, Imazamethabenz 200 g/ha) was 5%.
In the case of `COCc1cnc(C2=NC(C)(C(C)C)C(=O)N2)c(C(=O)O)c1` (stereo not drawn) [Imazamox, imazamox], the “% visual injury, Obs” value ([8]; 17.5 g/ha) is reported as 75% and the pest or weed control at 17.5 g/ha ([10]; 17.5 g/ha) is reported as 63%.
`CON=C(C)c1cccc(Oc2nc(OC)cc(OC)n2)c1C(=O)O` (mixture of isomers) [Pyriminobac, pyriminobac] was tested, and the “% visual injury, Obs” value (spring wheat (TRZAS); 17.5 g/ha) was 0%, the “% visual injury, Obs” value (spring barley (HORVS); 17.5 g/ha) was 0% and the “% visual injury, Obs” value ([1]; 17.5 g/ha) was 5%. The pest or weed control at 17.5 g/ha ([2]; Bassia scoparia, post-emergence, read-out: % visual injury, Obs) was 0%, the “% visual injury, Obs” value ([12]; 17.5 g/ha) was 5% and the “% visual injury, Obs” value ([6]; 17.5 g/ha) was 0%. The “% visual injury, Obs” value ([13]; 17.5 g/ha) was 0%, the pest or weed control at 17.5 g/ha [10] was 0% and the “% visual injury, Obs” value ([11]; 17.5 g/ha) was 5%.
